In US11638702B2, “Glyceryl 3-hydroxybutyrates for traumatic brain injury” (NeuroEnerygy Ventures, Inc., priority 2017, dated 2023):

Tests used:
[1] = test system: traumatic brain injury (TBI) patients; assay: Group comparisons of TBI patients / military personnel given glyceryl tris(3-hydroxybutyrate) versus matched patients; format: in vivo, human
Method: The patients are followed up approximately 6 months, after the TBI.
Military personnel having closed TBIs due to vehicular accidents or IEDs or other battlefield causes are evaluated for the severity of their TBIs and, where glyceryl tris(3-hydroxybutyrate) is available for administration, are started on a regimen of […] in 2 or 3 divided doses for 7 days (which regimen is generally started within 2 or 3 hours of injury) and then re-evaluated at day 7 to assess whether further treatment for the TBI is warranted. These are compared with comparably injured military personnel where access to the glyceryl tris(3-hydroxybutyrate) was not available for administration within the first week after injury.
In light of Example 10, combat troops and medics associated therewith are provided with glyceryl tris(3-hydroxybutyrate) to take into the field for use in triage in the case of mild-moderate closed TBI situations.
In light of Examples 10 and 11, combat troops are routinely given a morning dose of glyceryl tris(3-hydroxybutyrate) while in combat zones in case they suffer a mild to moderate non-penetrating closed TBI. For those troops that do suffer such TBIs within 12 hours of administration, their recovery, both acutely and longer term, is improved as compared to those only receiving the glyceryl tris(3-hydroxybutyrate) administration upon injury, after being matched for injury severity. Similar comparatives between those getting variously identical regimens of glyceryl tris(3-hydroxybutyrate) post-injury other than the single prophylactic dose prior to injury, with those receiving the preinjury dose faring better than those not receiving it, and further those whose injury is closer in time to the administration (1-2 hours post administration) faring better than those being injured further in time form the administration (10-12 hours post-administration).

[2] = test system: traumatic brain injury (TBI) patients; assay: Oral glyceryl tris(3-hydroxybutyrate) with standard non-restricted diet in individual TBI patients (case examples); format: in vivo, human; settings: for Clinical status at follow-up: day 7 of regimen
Method: A 60 kg person presents with TBI due to a minor car accident. On initial examination, within 1 hour of the accident, moderate TBI is determined by EMT at the scene, on the basis disorientation and of the Glasgow Coma Scale (9-13). The patient is conscious, is hyperglycemic and able to orally ingest the ester. The patient is started on 0.5 g/kg/day glyceryl tris(3-hydroxybutyrate) orally in 3 divided doses (i.e., 10 g per serving 3 times a day). The patient is transported to a medical facility and allowed to ingest a standard diet lunch, having no glucogenic caloric restriction. […] The patient completes the regimen.
A 70 kg (boxer) presents with a sports injury concussion after having a history of 3 similar concussions over the past year. The past concussions are treated by standard medical practice without the use of ketogenic diet, starvation, or the esters of use in the present invention. The most recent concussive injury occurs 2 hours before the patient being brought into a hospital for treatment. The patient is immediately examined and determined to be hyperglycemic and to have a moderate concussive injury (on the basis of short term loss of consciousness, their lingering disorientation, and a Glasgow Coma Scale score of 9-13). The patient is started on 2.0 g/kg/day glyceryl tris(3-hydroxybutyrate) in three divided dose (i.e.. 46.7 g per serving 3 times a day) and permitted an ordinary standard oral diet not having glucogenic caloric restrictions for a 70 kg person. Treatment continues for 3 days.
The patient in Example 3, knowing that further concussive incidents are likely requests advice as to minimizing the effects of further concussive incidents. The patient is told to restart the glyceryl tris(3-hydroxybutyrate) regimen at least one meal period before partaking in the activity likely to result in a concussive injury. The patient has such serving at a 5 PM dinner and is in a match at 7 PM. The patient does in fact suffer a further TBI which once again is upon examination at the scene is determined to be a moderate TBI, however, the patient is euglycemic. On transport to a medical facility, the patient is re-examined and confirm that they have suffered another moderate TBI. The patient is started on 2.0 g/kg/day glyceryl tris(3-hydroxybutyrate) in three divided doses 46.7 g per serving 3 times a day) and permitted an ordinary standard oral diet not having glucogenic caloric restrictions for a 70 kg person. […] The patient is advised to continue with the glyceryl tris(3-hydroxybutyrate) regimen as in Example 3 for 6 days and return for re-evaluation. The patient maintains the regimen for 3 days instead of the recommended 6 and reports no adverse or lingering effects from the TBI.
The patients in Examples 2, 4, and 5 on re-evaluation are immediately started on the regimens referred to in Examples 1, 3, and 3 respectively for 7 days, and directed to return for re-evaluation on the 7th day of the newly started regimen. […] However, the improvement is not as complete as the patients in Examples 1 or 3.
A 30 kg child is brought to the emergency room with moderate to severe TBI (as per the Modified Glasgow Coma Scale) due to a playground fall, is hyperglycemic, is unconscious, is intubated, and begun on a regimen of 30 g twice daily of glyceryl tris(3-hydroxybutyrate) and further fed standard normal enteral diet. The regimen is continued for 7 days and re-evaluated at that time. […] The treatment is continued, with re-evaluation set for 7 days later.

Q: `CC(O)CC(=O)OCC(COC(=O)CC(C)O)OC(=O)CC(C)O` (stereo not drawn) [glyceryl tris(3-hydroxybutyrate)] was tested. Which “Long term effects of TBI” value ([1]; Example 9: moderate TBI, given with normal meals 2 or 3 times a day for one or two weeks, follow-up approximately 6 months after TBI, vs ketogenic diet or starvation) did it give?
A: Its value is “minimal, if not non-existent”.

Q: What about the “Recovery from acute symptoms and long-term post-concussive syndrome symptoms vs those not receiving it” value ([1]; Example 10: military personnel, closed TBI, 0.5 mg/kg/day to 2.0 mg/kg/day in 2 or 3 divided doses for 7 days, started within 2 or 3 hours of injury) of the same molecule?
A: The value was “fare much better”.

Q: And the “Outcome vs treatment as in Example 10” value ([1]; Example 11: mild-moderate closed TBI, given within minutes of suffering the TBI)?
A: The value was “fare even better”.

Q: What about the “Recovery, acutely and longer term, vs administration only upon injury” value ([1]; Example 12: combat troops, morning prophylactic dose, TBI within 12 hours of administration, matched for injury severity) of the same molecule?
A: The value was “improved”.

Q: What about the Disorientation ([2]; Example 1: 60 kg female, moderate TBI (Glasgow Coma Scale 9-13), 0.5 g/kg/day orally in 3 divided doses, standard diet, after 2 days) of the same molecule?
A: The Disorientation was “recovered from their disorientation”.

Q: And the “Clinical status at follow-up” value ([2]; Example 1: 60 kg female, moderate TBI, 0.5 g/kg/day orally in 3 divided doses, normal meals)?
A: Its value is “fully recovered”.

Q: What about the Glycemic status ([2]; Example 1: patient hyperglycemic at presentation, 0.5 g/kg/day, from shortly after ester administration through end of treatment and beyond) of the same molecule?
A: Its Glycemic status is “euglycemic”.

Q: What about the “Clinical status at follow-up” value ([2]; Example 3: 70 kg male boxer, 2.0 g/kg/day in three divided doses, standard oral diet) of the same molecule?
A: The value was “fully recovered”.

Q: And the Glycemic status ([2]; Example 3: patient hyperglycemic at presentation, 2.0 g/kg/day, from shortly after ester administration through end of treatment)?
A: Its Glycemic status is “euglycemic”.

Q: And the “Adverse effects of the TBI the next day” value ([2]; Example 6: pre-injury serving, then 2.0 g/kg/day in three divided doses, the next day)?
A: The value was “no adverse effects”.

Q: And the Symptoms on reexamination ([2]; Example 6: regimen maintained for 3 days instead of the recommended 6)?
A: The Symptoms on reexamination was “no symptoms are seen”.

Q: What about the “Glycemic status at examination after further TBI” value ([2]; Example 6: serving taken at 5 PM dinner before a 7 PM match (pre-injury dose), moderate TBI) of the same molecule?
A: Its value is “euglycemic”.

Q: And the “Clinical status at end of treatment” value ([2]; Example 8: 30 kg child, 30 g twice daily, after an additional 3 days of treatment)?
A: The value was “fully recovered”.

Q: What about the Consciousness ([2]; Example 8: 30 kg child, 30 g twice daily, day 4 of continued treatment) of the same molecule?
A: The Consciousness was “regains consciousness”.

Q: And the Clinical symptoms ([2]; Example 8: 30 kg child, moderate to severe TBI, unconscious, intubated, 30 g twice daily, standard enteral diet, after 7 days)?
A: The Clinical symptoms was “show improvement, but are not yet in normal ranges”.
